In patent US10392419B2, “Modified cyclic dinucleotide compounds” (Boehringer Ingelheim International GmbH, priority 2017, dated 2019):

Tests used:
[1] = target: T1, human STING protein in THP1-Blue ISG cells (Homo sapiens, UniProt Q86WV6, G230A/H232R/R293Q/R71H); assay: In vitro cytokine induction, THP1-Blue ISG reporter cell assay (IRF-inducible SEAP); format: cell-based; conditions: 24 hours incubation, SEAP OD at 620 nm
T1 construct: endogenous STING levels from the parental, unmodified THP1-Blue ISG cell lines; endogenous in cells; host or cells: THP1-Blue ISG cells
From the text: In Vitro Cytokine Induction
Activation of the STING protein expressed in THP1 cells results in an increase of interferon production. By the stable integration of an interferon regulatory factor (IRF)-inducible SEAP (secreted embryonic alkaline phosphatase) reporter construct the functional interferon signaling pathway can be monitored. Using Invivogen's QUANTI-Blue™ colorimetric enzyme assay and a suitable optical density (OD) reader the activity of SEAP can be detected and quantified. This technique could be used to characterize pharmacological modification of the STING protein.
Measurements of SEAP activity were performed in THP1-Blue ISG cells stably expressing the human STING protein and the IRF-inducible SEAP reporter construct. Cells were cultivated for expansion in RPMI1640 medium with 10% fetal calf serum, 50 μg/ml Penicillin-Streptomycin, 100 μg/ml Zeocin, and 100 μg/ml Normocin in a 37°, 95% humidity and 5% CO2 incubator. Assay-ready cells were stored as frozen stocks.
In preparation for the assay, the cells were thawed in Zeocin-/Normocin-free medium and were distributed into the assay plates with a density of 15000 cells/15 μL per well. Compounds were prepared by an 8- or 16-point serial dilution in 50% aqueous DMSO and a final dilution step into medium to ensure a final DMSO concentration of 0.5% in the assay. 5 μL of diluted compounds plus 5 μL medium were added to the plates, followed by a 24 hours incubation at 37° C.
At the day of the assay, 75 μl per well of Quanti-Blue reagent was added to all wells of the plate and the plate was incubated another 30 minutes at 37° C. The OD at 620 nm was measured on the EnVision reader (PerkinElmer). EC50 values and Hill slopes were derived from 8- or 16-point four parametric non-linear curve fittings with the Megalab software (Boehringer Ingelheim) using the OD at 620 nm.

[2] = target: Human STING (hSTING, residues 155-341, wild-type sequence) (Homo sapiens, UniProt Q86WV6, H232R); assay: hSTING binding by differential scanning fluorimetry (DSF); conditions: for binding to human STING compared to the other diastereomer(s) of the same Example / thermal shift compared to ribose Example 5/Compound 23 in WO 2016/145102: in words
Description: Differential Scanning Fluorimetry (DSF)
Assay buffer: 20 mM Tris, 150 mM NaCl pH7.5
Target Protein: Human STING (hSTING, residues 155-341, wild-type sequence with N-terminal His8-tag and TEV-cleavage site, MW: 23601.5 Da)
Protein stock solution: c=309 μM stock solution in assay buffer
Final Assay concentrations of test compounds: 100 μM, 3 μM target protein, “5×” SYPR Orange
1) Compound stock solutions and dilutions thereof were prepared in assay buffer
2) 5 μl fluorescent dye stock solution (5000×SYPRO Orange) was mixed with 50 μl target protein (309 μM) and 945 μl buffer.
3) 2 μl of this protein-dye-mixture (25×SYPRO Orange and 15 μM Protein) was added to 8 μl compound solution.
4) Certain well positions were used as negative control.
5) The plates were prepared for duplicate measurement and centrifuged for 2 min at 1000 g.
6) In the measurement, 160 cycles of 0.5° C. were used (temperature ramp 15 s/cycle, 15° C. to 95° C.).
Data analysis: The dissociation curves were processed in Bio-Rad CFX Manager. Peak type was set to “negative”. In the case of Examples 1.1, 2.1, 3.1 and 4.1, at least two Tm measurements were averaged.

[3] = 100 μM test compound, 3 μM target protein
[4] = 100 μM test compound, 3 μM target protein, Sodium Salt

Human STING (hSTING, residues 155-341, wild-type sequence), sequence (Q86WV6 155-341 H232R limits assumed): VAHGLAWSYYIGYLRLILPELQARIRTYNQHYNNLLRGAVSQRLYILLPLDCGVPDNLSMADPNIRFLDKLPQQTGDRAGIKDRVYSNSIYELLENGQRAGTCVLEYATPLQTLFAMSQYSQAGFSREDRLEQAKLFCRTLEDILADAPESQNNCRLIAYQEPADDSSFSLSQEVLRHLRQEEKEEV
T1 sequence (Q86WV6 whole entry R71H/G230A/H232R/R293Q): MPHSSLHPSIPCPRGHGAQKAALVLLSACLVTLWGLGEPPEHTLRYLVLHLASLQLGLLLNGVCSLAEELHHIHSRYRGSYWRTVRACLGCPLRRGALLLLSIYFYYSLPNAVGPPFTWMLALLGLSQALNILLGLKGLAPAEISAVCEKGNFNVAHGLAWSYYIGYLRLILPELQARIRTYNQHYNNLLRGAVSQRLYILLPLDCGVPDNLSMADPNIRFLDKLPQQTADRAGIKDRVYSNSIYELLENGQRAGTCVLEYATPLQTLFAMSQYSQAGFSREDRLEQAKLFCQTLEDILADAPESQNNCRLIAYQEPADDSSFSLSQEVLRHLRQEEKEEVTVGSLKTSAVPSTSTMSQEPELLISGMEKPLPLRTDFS

| Compound | EC50 [1] | ΔTm at 100 µM ([2]; 100 μM test compound, 3 μM target protein, read-out: hSTING Tm shift) | binding to human STING compared to the other diastereomer(s) of the same Example [2] | thermal shift compared to ribose Example 5/Compound 23 in WO 2016/145102 [2] | hSTING Tm shift [2, 3] | EC50 ([1]; Sodium Salt) | hSTING Tm shift [2, 4] |
| --- | --- | --- | --- | --- | --- | --- | --- |
| Nc1ncnc2c1ncn2[C@@H]1O[C@@H]2COP(=O)(S)O[C@H]3[C@H]4OC[C@@]3(COP(=O)(S)O[C@H]2[C@H]1F)O[C@H]4n1cnc2c(N)ncnc21 (single isomer, unassigned) [Example 1.1, Cyclic (LNA-adenosine-(3′→5′)-phosphorothioate-2′-F-2′-deoxyadenosine-(3′→5′)-phosphorothioate)] | 110 nM | 27.6 °C | improved binding to human STING as compared to Example 1.2 | significantly larger thermal shifts | – | – | – |
| Nc1ncnc2c1ncn2[C@@H]1O[C@@H]2COP(=O)(S)O[C@H]3[C@H]4OC[C@@]3(COP(=O)(S)O[C@H]2[C@H]1F)O[C@H]4n1cnc2c(N)ncnc21 (single isomer, unassigned) [Example 1.2, Cyclic (LNA-adenosine-(3′→5′)-phosphorothioate-2′-F-2′-deoxyadenosine-(3′→5′)-phosphorothioate)] | 60 nM | – | – | – | 21.0 °C | – | – |
| Nc1nc2c(ncn2C2OC3COP(O)(=S)OC4C(COP(O)(=S)OC3C2F)OC(n2cnc3c(N)ncnc32)C4O)c(=O)[nH]1 (centres unmarked) [Example 5 Compound 23 in WO 2016/145102, 3′3′-RR-(2′F-G)(A), reference compound] | – | – | – | – | 21.1 °C | – | – |
| Cyclic (LNA-adenosine-(3′→5′)-phosphorothioate-2′-F-2′-deoxyguanosine-(3′→5′)-phosphorothioate), Sodium Salt [Example 2.1] | – | – | improved binding to human STING as compared to Example 2.2 | significantly larger thermal shifts | – | 140 nM | 30.3 °C |
| Cyclic (LNA-adenosine-(3′→5′)-phosphorothioate-2′-F-2′-deoxyguanosine-(3′→5′)-phosphorothioate), Sodium Salt [Example 2.2] | – | – | – | – | – | 50 nM | 21.8 °C |
| Cyclic (LNA-adenosine-(3′→5′)-phosphorothioate-2′-F-2′-deoxyinosine-(3′→5′)-phosphorothioate), Sodium Salt [Example 4.1] | – | – | improved binding to human STING as compared to Example 4.2 | significantly larger thermal shifts | – | 170 nM | 30.0 °C |
| Cyclic (LNA-adenosine-(3′→5′)-phosphorothioate-2′-F-2′-deoxyinosine-(3′→5′)-phosphorothioate), Sodium Salt [Example 4.2] | – | – | – | – | – | 110 nM | 21.4 °C |
| Cyclic (LNA-guanosine-(3′→5′)-phosphorothioate-2′-F-2′-deoxyadenosine-(3′→5′)-phosphorothioate), Sodium Salt [Example 3.1] | – | – | improved binding to human STING as compared to other Example 3 diastereomers | significantly larger thermal shifts | – | 150 nM | 30.7 °C |
| Cyclic (LNA-guanosine-(3′→5′)-phosphorothioate-2′-F-2′-deoxyadenosine-(3′→5′)-phosphorothioate), Sodium Salt [Example 3.2] | – | – | – | – | – | 70 nM | 22.4 °C |
| Cyclic (LNA-guanosine-(3′→5′)-phosphorothioate-2′-F-2′-deoxyadenosine-(3′→5′)-phosphorothioate), Sodium Salt [Example 3.3] | – | – | – | – | – | 130 nM | 21.6 °C |
| Cyclic (LNA-guanosine-(3′→5′)-phosphorothioate-2′-F-2′-deoxyadenosine-(3′→5′)-phosphorothioate), Sodium Salt [Example 3.4] | – | – | – | – | – | 2000 nM | 10.9 °C |
